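Cells were grown in 96-well plates and exposed to each compound for 48 hours at five concentrations; endpoints were interpolated linearly between bracketing concentrations, or set to the highest concentration if not reached. TGI marks complete inhibition of growth.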 Where a SMILES comes first, the peptide text is derived from it. Bridges are numbered along the chain shown (N, C = ends). [ ]: non-standard residue; d: D form. The star is where a group is joined. ξ: configuration not given here. X26 = O=C(/C=C/C=C/C=C/C=C/C=C/C(=O)*)NC1=C(O)CCC1=O; NMeA = CN[C@@H](C)C(=O)O; ξF = NC(Cc1ccccc1)C(=O)O; ξA = CC(N)C(=O)O
Columns and labels:
Assay in all cases: NCI anticancer screen, dose series, 48 h
SNB-75 CNS = tested on: SNB-75 CNS
NCI-H522 lung = tested on: NCI-H522 lung
SR leukemia = tested on: SR leukemia
BT-549 breast = tested on: BT-549 breast
NCI-H226 lung = tested on: NCI-H226 lung
HCT-116 colon = tested on: HCT-116 colon
SK-MEL-5 melanoma = tested on: SK-MEL-5 melanoma
MDA-MB-231 breast = tested on: MDA-MB-231 breast
OVCAR-8 ovarian = tested on: OVCAR-8 ovarian
SK-OV-3 ovarian = tested on: SK-OV-3 ovarian
TK-10 renal = tested on: TK-10 renal
SF-295 CNS = tested on: SF-295 CNS
UACC-62 melanoma = tested on: UACC-62 melanoma
NCI-H460 lung = tested on: NCI-H460 lung
HCT-15 colon = tested on: HCT-15 colon
EKVX NSCLC = tested on: EKVX NSCLC
NCI-H23 lung = tested on: NCI-H23 lung
CAKI-1 renal = tested on: CAKI-1 renal
HCC-2998 colon = tested on: HCC-2998 colon
IGROV1 ovarian = tested on: IGROV1 ovarian
HOP-92 NSCLC = tested on: HOP-92 NSCLC
K-562 leukemia = tested on: K-562 leukemia
M14 melanoma = tested on: M14 melanoma
PC-3 prostate = tested on: PC-3 prostate
MCF7 breast = tested on: MCF7 breast
LOX IMVI melanoma = tested on: LOX IMVI melanoma
OVCAR-5 ovarian = tested on: OVCAR-5 ovarian
T-47D breast = tested on: T-47D breast
CCRF-CEM leukemia = tested on: CCRF-CEM leukemia
SF-539 CNS = tested on: SF-539 CNS
UACC-257 melanoma = tested on: UACC-257 melanoma
UO-31 renal = tested on: UO-31 renal
SNB-19 CNS = tested on: SNB-19 CNS
OVCAR-3 ovarian = tested on: OVCAR-3 ovarian
KM12 colon = tested on: KM12 colon
HL-60(TB) leukemia = tested on: HL-60(TB) leukemia
MOLT-4 leukemia = tested on: MOLT-4 leukemia
U251 CNS = tested on: U251 CNS
MALME-3M melanoma = tested on: MALME-3M melanoma
ACHN renal = tested on: ACHN renal
DU-145 prostate = tested on: DU-145 prostate
MDA-MB-435 = tested on: MDA-MB-435
A498 renal = tested on: A498 renal
786-0 renal = tested on: 786-0 renal
SN12C renal = tested on: SN12C renal
HS 578T breast = tested on: HS 578T breast
SK-MEL-2 melanoma = tested on: SK-MEL-2 melanoma
COLO 205 colon = tested on: COLO 205 colon
MDA-N = tested on: MDA-N
RPMI-8226 leukemia = tested on: RPMI-8226 leukemia
NCI/ADR-RES ovarian = tested on: NCI/ADR-RES ovarian
SW-620 colon = tested on: SW-620 colon
SK-MEL-28 melanoma = tested on: SK-MEL-28 melanoma
HT29 colon = tested on: HT29 colon
A549 NSCLC = tested on: A549 NSCLC
HOP-62 NSCLC = tested on: HOP-62 NSCLC
OVCAR-4 ovarian = tested on: OVCAR-4 ovarian
SF-268 CNS = tested on: SF-268 CNS
RXF 393 renal = tested on: RXF 393 renal

COc1ccc(S(=O)(=O)N2C(=O)CCC2C(=O)NN)cc1 (configuration not stated)
TGI (SNB-75 CNS): > 100 µM | TGI (NCI-H522 lung): > 100 µM | TGI (SR leukemia): > 100 µM | TGI (BT-549 breast): > 100 µM | TGI (NCI-H226 lung): > 100 µM | TGI (HCT-116 colon): > 100 µM | TGI (SK-MEL-5 melanoma): > 100 µM | TGI (MDA-MB-231 breast): > 100 µM | TGI (OVCAR-8 ovarian): > 100 µM | TGI (SK-OV-3 ovarian): > 100 µM | TGI (TK-10 renal): > 100 µM | TGI (SF-295 CNS): > 100 µM | TGI (UACC-62 melanoma): > 100 µM | TGI (NCI-H460 lung): > 100 µM | TGI (HCT-15 colon): > 100 µM | TGI (EKVX NSCLC): > 100 µM | TGI (NCI-H23 lung): > 100 µM | TGI (CAKI-1 renal): > 100 µM | TGI (HCC-2998 colon): > 100 µM | TGI (IGROV1 ovarian): > 100 µM | TGI (HOP-92 NSCLC): > 100 µM | TGI (K-562 leukemia): > 100 µM | TGI (M14 melanoma): > 100 µM | TGI (PC-3 prostate): > 100 µM | TGI (MCF7 breast): > 100 µM | TGI (LOX IMVI melanoma): > 100 µM | TGI (OVCAR-5 ovarian): > 100 µM | TGI (T-47D breast): > 100 µM | TGI (CCRF-CEM leukemia): > 100 µM | TGI (SF-539 CNS): > 100 µM | TGI (UACC-257 melanoma): > 100 µM | TGI (UO-31 renal): > 100 µM | TGI (SNB-19 CNS): > 100 µM | TGI (OVCAR-3 ovarian): > 100 µM | TGI (KM12 colon): > 100 µM | TGI (HL-60(TB) leukemia): > 100 µM | TGI (MOLT-4 leukemia): > 100 µM | TGI (U251 CNS): > 100 µM | TGI (MALME-3M melanoma): > 100 µM | TGI (ACHN renal): > 100 µM | TGI (DU-145 prostate): > 100 µM | TGI (MDA-MB-435): > 100 µM | TGI (A498 renal): > 100 µM | TGI (786-0 renal): > 100 µM | TGI (SN12C renal): > 100 µM | TGI (HS 578T breast): > 100 µM | TGI (SK-MEL-2 melanoma): > 100 µM | TGI (COLO 205 colon): > 100 µM | TGI (MDA-N): > 100 µM | TGI (RPMI-8226 leukemia): > 100 µM | TGI (NCI/ADR-RES ovarian): > 100 µM | TGI (SW-620 colon): > 100 µM | TGI (SK-MEL-28 melanoma): > 100 µM | TGI (HT29 colon): > 100 µM | TGI (A549 NSCLC): > 100 µM | TGI (HOP-62 NSCLC): > 100 µM | TGI (OVCAR-4 ovarian): > 100 µM

CC1NC(=O)[C@H](C)N(C)C(=O)[C@@H]2CCCN2C(=O)[C@@H](NC(=O)C(Cc2ccccc2)NC(=O)/C=C/C=C/C=C/C=C/C=C/C(=O)NC2=C(O)CCC2=O)COC(=O)[C@@H]2CCCN2C1=O (some centres not stated) (X26-[ξF]SP[NMeA][ξA]P; ester 2-C)
TGI (SNB-75 CNS): > 100 µM | TGI (NCI-H522 lung): > 100 µM | TGI (SR leukemia): > 100 µM | TGI (BT-549 breast): > 100 µM | TGI (HCT-116 colon): > 100 µM | TGI (SK-MEL-5 melanoma): > 100 µM | TGI (MDA-MB-231 breast): > 100 µM | TGI (SK-OV-3 ovarian): > 100 µM | TGI (TK-10 renal): 92.1 µM | TGI (SF-295 CNS): > 100 µM | TGI (UACC-62 melanoma): > 100 µM | TGI (NCI-H460 lung): > 100 µM | TGI (HCT-15 colon): > 100 µM | TGI (EKVX NSCLC): > 100 µM | TGI (NCI-H23 lung): > 100 µM | TGI (CAKI-1 renal): > 100 µM | TGI (HCC-2998 colon): > 100 µM | TGI (IGROV1 ovarian): > 100 µM | TGI (HOP-92 NSCLC): > 100 µM | TGI (K-562 leukemia): > 100 µM | TGI (M14 melanoma): > 100 µM | TGI (PC-3 prostate): > 100 µM | TGI (SF-268 CNS): > 100 µM | TGI (MCF7 breast): > 100 µM | TGI (LOX IMVI melanoma): > 100 µM | TGI (OVCAR-5 ovarian): > 100 µM | TGI (T-47D breast): > 100 µM | TGI (CCRF-CEM leukemia): > 100 µM | TGI (SF-539 CNS): > 100 µM | TGI (UACC-257 melanoma): > 100 µM | TGI (UO-31 renal): > 100 µM | TGI (SNB-19 CNS): > 100 µM | TGI (OVCAR-3 ovarian): > 100 µM | TGI (KM12 colon): > 100 µM | TGI (HL-60(TB) leukemia): > 100 µM | TGI (U251 CNS): > 100 µM | TGI (MALME-3M melanoma): > 100 µM | TGI (ACHN renal): > 100 µM | TGI (RXF 393 renal): > 100 µM | TGI (DU-145 prostate): > 100 µM | TGI (MDA-MB-435): > 100 µM | TGI (786-0 renal): > 100 µM | TGI (SN12C renal): > 100 µM | TGI (HS 578T breast): > 100 µM | TGI (SK-MEL-2 melanoma): > 100 µM | TGI (COLO 205 colon): > 100 µM | TGI (MDA-N): > 100 µM | TGI (RPMI-8226 leukemia): > 100 µM | TGI (NCI/ADR-RES ovarian): > 100 µM | TGI (SW-620 colon): > 100 µM | TGI (SK-MEL-28 melanoma): > 100 µM | TGI (HT29 colon): > 100 µM | TGI (A549 NSCLC): > 100 µM | TGI (HOP-62 NSCLC): > 100 µM | TGI (OVCAR-4 ovarian): > 100 µM
